pIC50, pKd: −log10 of the molar value.
Experiments:
[1] = tested on: A2780/Taxol; test: Antiproliferative activity against human A2780T cells assessed as reduction in cell viability measured after 48 hrs by MTT assay; type: functional, cell-based
[2] = tested on: MCF7; test: Cell cycle analysis in human MCF7 cells assessed as accumulation at S phase at 5 nM measured after 48 hrs by RnaseA/propidium iodide staining based flow cytometry (reference value: 27.46 %); type: functional
[3] = tested on: B16-F10; test: Antimigratory activity in mouse B16-F10 cells assessed as inhibition of cell migration measured after 24 hrs; type: functional, cell-based; settings: dose 5-20 nM
[4] = tested on: MCF7; test: Induction of apoptosis in human MCF7 cells assessed as necrotic cells at 5 nM measured after 48 hrs by annexinV-FITC/propidium iodide staining based flow cytometry (reference value: 2.62 %); type: functional
[5] = tested on: MCF7; test: Cell cycle analysis in human MCF7 cells assessed as accumulation at S phase at 10 nM measured after 48 hrs by RnaseA/propidium iodide staining based flow cytometry (reference value: 27.46 %); type: functional
[6] = tested on: MCF7; test: Induction of apoptosis in human MCF7 cells assessed as early apoptotic cells at 5 nM measured after 48 hrs by annexinV-FITC/propidium iodide staining based flow cytometry (reference value: 1.89 %); type: functional
[7] = tested on: B16-F10; test: Antitumor activity against mouse B16-F10 cells inoculated in BALB/c mouse assessed as tumor growth inhibition at 15 mg/kg, ip qd for 14 days by caliper method relative to control; type: functional; settings: 336 h, time 14 day, read-out: TGI
[8] = Acute toxicity in BALB/c mouse inoculated with mouse B16-F10 cells assessed as effect on liver at 15 to 30 mg/kg, ip qd for 14 days by hematoxylin and eosin staining based analysis; type: organism-based; settings: in vivo, 336 h, dose 15-30 mg/kg, time 14 day
[9] = tested on: MCF7; test: Inhibition of colony formation in human MCF7 cells assessed as decrease in colonies measured after 24 hrs by photographic imaging analysis; type: functional, cell-based; settings: dose 0.05-5 µM
[10] = tested on: MCF7; test: Induction of apoptosis in human MCF7 cells assessed as live cells at 20 nM measured after 48 hrs by annexinV-FITC/propidium iodide staining based flow cytometry (reference value: 88.5 %); type: functional
[11] = tested on: MCF7; test: Cell cycle analysis in human MCF7 cells assessed as accumulation at G2 phase at 10 nM measured after 48 hrs by RnaseA/propidium iodide staining based flow cytometry (reference value: 17.03 %); type: functional
[12] = tested on: MCF7; test: Cell cycle analysis in human MCF7 cells assessed as accumulation at G1 phase at 20 nM measured after 48 hrs by RnaseA/propidium iodide staining based flow cytometry (reference value: 53.68 %); type: functional
[13] = tested on: B16-F10; test: Disruption of microtubule network in mouse […] cells measured after 6 hrs by DAPI staining based immunofluorescence microscopic assay; type: cell-based; settings: dose 10-40 nM
[14] = tested on: B16-F10; test: Antiproliferative activity against mouse B16-F10 cells assessed as reduction in cell viability measured after 48 hrs by MTT assay; type: functional, cell-based
[15] = tested on: A2780/Taxol; test: Inhibition of colony formation in human A2780T cells assessed as decrease in colonies measured after 24 hrs by photographic imaging analysis; type: functional, cell-based; settings: dose 10-100 nM
[16] = Binding affinity to immobilized pig brain tubulin assessed as equilibrium dissociation constant by SPR assay; type: tissue-based, Sus scrofa
[17] = tested on: MCF7; test: Induction of apoptosis in human MCF7 cells assessed as early apoptotic cells at 10 nM measured after 48 hrs by annexinV-FITC/propidium iodide staining based flow cytometry (reference value: 1.89 %); type: functional
[18] = tested on: MCF7; test: Cell cycle analysis in human MCF7 cells assessed as accumulation at G1 phase at 5 nM measured after 48 hrs by RnaseA/propidium iodide staining based flow cytometry (reference value: 53.68 %); type: functional
[19] = tested on: MCF7; test: Cell cycle analysis in human MCF7 cells assessed as accumulation at G2 phase at 5 nM measured after 48 hrs by RnaseA/propidium iodide staining based flow cytometry (reference value: 17.03 %); type: functional
[20] = Resistance index, ratio of IC50 for antiproliferative activity against human A2780T cells assessed as reduction in cell viability measured after 48 hrs by MTT assay to IC50 for antiproliferative activity against human A2780S cells assessed as reduction in cell viability measured after 48 hrs by MTT assay; type: functional
[21] = tested on: B16-F10; test: Antitumor activity against mouse B16-F10 cells inoculated in BALB/c mouse assessed as tumor growth inhibition at 30 mg/kg, ip qd for 14 days by caliper method relative to control; type: functional; settings: 336 h, time 14 day, read-out: TGI
[22] = tested on: MCF7; test: Induction of apoptosis in human MCF7 cells assessed as live cells at 5 nM measured after 48 hrs by annexinV-FITC/propidium iodide staining based flow cytometry (reference value: 88.5 %); type: functional
[23] = tested on: MCF7; test: Induction of apoptosis in human MCF7 cells assessed as late apoptotic cells at 20 nM measured after 48 hrs by annexinV-FITC/propidium iodide staining based flow cytometry (reference value: 5.99 %); type: functional
[24] = tested on: MCF7; test: Induction of apoptosis in human MCF7 cells assessed as necrotic cells at 20 nM measured after 48 hrs by annexinV-FITC/propidium iodide staining based flow cytometry (reference value: 2.62 %); type: functional
[25] = tested on: MCF7; test: Induction of apoptosis in human MCF7 cells assessed as late apoptotic cells at 5 nM measured after 48 hrs by annexinV-FITC/propidium iodide staining based flow cytometry (reference value: 5.99 %); type: functional
[26] = tested on: MCF7; test: Induction of apoptosis in human MCF7 cells assessed as necrotic cells at 10 nM measured after 48 hrs by annexinV-FITC/propidium iodide staining based flow cytometry (reference value: 2.62 %); type: functional
[27] = tested on: B16-F10; test: Antimigratory activity in mouse B16-F10 cells assessed as inhibition of cell migration by measuring wound closure at 20 nM measured after 24 hrs (reference value: 51.92 +/- 2.02 %); type: functional; set-up: scale not given: the % may be the effect or the level left
[28] = tested on: MCF7; test: Cell cycle analysis in human MCF7 cells assessed as accumulation at G1 phase at 10 nM measured after 48 hrs by RnaseA/propidium iodide staining based flow cytometry (reference value: 53.68 %); type: functional
[29] = tested on: A2780S; test: Antiproliferative activity against human A2780S cells assessed as reduction in cell viability measured after 48 hrs by MTT assay; type: functional, cell-based
[30] = Acute toxicity in BALB/c mouse inoculated with mouse B16-F10 cells assessed as effect on body weight at 15 mg/kg, ip qd for 14 days; type: organism-based; settings: in vivo, 336 h, time 14 day
[31] = tested on: B16-F10; test: Antimigratory activity in mouse B16-F10 cells assessed as inhibition of cell migration by measuring wound closure at 5 nM measured after 24 hrs (reference value: 51.92 +/- 2.02 %); type: functional; set-up: scale not given: the % may be the effect or the level left
[32] = Acute toxicity in BALB/c mouse inoculated with mouse B16-F10 cells assessed as effect on kidney at 15 to 30 mg/kg, ip qd for 14 days by hematoxylin and eosin staining based analysis; type: organism-based; settings: in vivo, 336 h, dose 15-30 mg/kg, time 14 day
[33] = tested on: MCF7; test: Induction of apoptosis in human MCF7 cells assessed as late apoptotic cells at 10 nM measured after 48 hrs by annexinV-FITC/propidium iodide staining based flow cytometry (reference value: 5.99 %); type: functional
[34] = tested on: MCF7; test: Cell cycle analysis in human MCF7 cells assessed as accumulation at G2 phase at 20 nM measured after 48 hrs by RnaseA/propidium iodide staining based flow cytometry (reference value: 17.03 %); type: functional
[35] = tested on: MCF7; test: Antiproliferative activity against human MCF7 cells assessed as reduction in cell viability measured after 48 hrs by MTT assay; type: functional, cell-based
[36] = tested on: MCF7; test: Cell cycle analysis in human MCF7 cells assessed as accumulation at S phase at 20 nM measured after 48 hrs by RnaseA/propidium iodide staining based flow cytometry (reference value: 27.46 %); type: functional
[37] = tested on: MCF7; test: Induction of apoptosis in human MCF7 cells assessed as live cells at 10 nM measured after 48 hrs by annexinV-FITC/propidium iodide staining based flow cytometry (reference value: 88.5 %); type: functional
[38] = species: Sus scrofa; test: (§1) Inhibition of pig brain tubulin polymerization by spectrophotometric method; type: tissue-based
[39] = as §1; type: tissue-based, Sus scrofa
[40] = tested on: A549; test: Antiproliferative activity against human A549 cells assessed as reduction in cell viability measured after 48 hrs by MTT assay; type: functional, cell-based
[41] = tested on: B16-F10; test: Antimigratory activity in mouse B16-F10 cells assessed as inhibition of cell migration by measuring wound closure at 10 nM measured after 24 hrs (reference value: 51.92 +/- 2.02 %); type: functional; set-up: scale not given: the % may be the effect or the level left
[42] = tested on: MCF7; test: Induction of apoptosis in human MCF7 cells assessed as early apoptotic cells at 20 nM measured after 48 hrs by annexinV-FITC/propidium iodide staining based flow cytometry (reference value: 1.89 %); type: functional
[43] = tested on: HeLa; test: Antiproliferative activity against human HeLa cells assessed as reduction in cell viability measured after 48 hrs by MTT assay; type: functional, cell-based

COc1cc(-c2cccc3[nH]c(-c4cccc5c4ccn5C)nc23)cc(OC)c1OC
pIC50 [1]: 8.01 | Activity [2]: 23.09% | inhibition [3]: Dose-Dependent Effect | Activity [4]: 4.26% | Activity [5]: 22.93% | Activity [6]: 2.98% | inhibition in vivo at 15 mg/kg [7]: 78.7% | Activity [8]: Non-Toxic | inhibition [9]: Dose-Dependent Effect | Activity [10]: 58.9% | Activity [11]: 62.8% | Activity [12]: 17.16% | Activity [13]: Dose-Dependent Effect | Activity [14]: Dose-Dependent Effect | pIC50 ([14]; B16-F10, 48 h): 7.54 | inhibition [15]: Dose-Dependent Effect | pKd [16]: 4.90 | Activity [17]: 5.12% | Activity [18]: 62.06% | Activity [19]: 13.41% | Ratio IC50 [20]: 1.6 | inhibition in vivo at 30 mg/kg [21]: 84.3% | Activity [22]: 83.7% | Activity [23]: 34.3% | Activity [24]: 2.14% | Activity [25]: 9.04% | Activity [26]: 2.12% | Activity [27]: 6.6% | Activity [28]: 13.1% | pIC50 [29]: 8.21 | Activity [30]: Non-Toxic | Activity [31]: 29.42% | Activity [32]: Non-Toxic | Activity [33]: 28.4% | Activity [34]: 62.16% | Activity [35]: Dose-Dependent Effect | pIC50 ([35]; MCF7, 48 h): 7.74 | Activity [36]: 19.63% | Activity [37]: 84.4% | inhibition [38]: Dose-Dependent Effect | pIC50 [39]: 5.60 | Activity [40]: Dose-Dependent Effect | pIC50 ([40]; A549, 48 h): 7.07 | Activity [41]: 15.68% | Activity [42]: 4.69% | Activity [43]: Dose-Dependent Effect | pIC50 [43]: 7.17
